Measured values taken from patent US20040029886A1, “Dihalopropene compounds, processes for their preparation, compositions comprising them and their use as pesticides” (priority 2001, published 2004).

Tests used:
Type in all cases: in vivo
Design in all cases: key: compounds are considered to be active when, at a concentration of 500 ppm or less, their action on the harmful organisms is 50% or more
[1] = system: eggs of the American tobacco budworm (Heliothis virescens); assay: Example C: eggs of American tobacco budworm, Petri dish with culture medium; settings: 500 ppm or less; eggs dipped 5 seconds, 200 μl on culture medium; after 6 days
Experimental: (§1) In Examples A to L below, compounds are considered to be active when, at a concentration of 500 ppm or less, their action on the harmful organisms is 50% or more.
A Petri dish whose bottom was covered with filter paper and which contained about 5 ml of culture medium was prepared. Pieces of filter paper with about 30, one-day-old eggs of the American tobacco budworm (Heliothis virescens) were dipped for 5 seconds into an aqueous solution of the formulated preparation to be examined and subsequently placed in a Petri dish. A further 200 μl of the aqueous solution were spread over the culture medium. The Petri dish was closed and then stored at about 25° C. in a climatized chamber. After 6 days of storage, the effect of the preparation on the eggs and any larvae which may have hatched from these (mortality) was determined. The following examples were active: Nos. 6, 27, 28, 29, 31, 35, 39, 43, 45, 59, 97, 226, 227, 228, 229, 351, 356, 357, 592, 593, 595, 949, 1001, 1126, 1129, 1132.

[2] = system: L2 larvae of the sugar beet armyworm (Spodoptera exigua); assay: Example H: L2 larvae of sugar beet armyworm, Petri dish with culture medium; settings: 500 ppm or less, after 6 days
Experimental: as §1
A Petri dish whose bottom was covered with filter paper and which contained […] of culture medium was prepared. Five L2 larvae of the sugar beet armyworm (Spodoptera exigua) were counted into a small beaker. 200 μl of an aqueous solution of the formulated preparation to be examined were pipetted into the beaker. The treated larvae were then poured into the Petri dish and a further 200 μl of the aqueous solution were distributed over the culture medium. The Petri dish was closed and then stored at 25° C. in a climatized chamber. After 6 days of storage, the effect of the preparation on the larvae (mortality) was determined. The following examples were active: Nos. 31, 97, 226, 227, 228, 229, 351, 356, 357, 592, 593, 595, 949, 1001, 1126, 1129, 1132.

[3] = system: black bean aphids (Aphis fabae); assay: Example B: black bean aphids on field bean, dip treatment; settings: 500 ppm or less; plants and aphids dipped 5 seconds; after 3 and 6 days
Source text: as §1
Germinated field bean seeds (Vicia faba) with radicles were transferred into brown glass bottles filled with tap water and subsequently populated with approximately 100 black bean aphids (Aphis fabae). Plants and aphids were then dipped for 5 seconds into an aqueous solution of the formulated preparation to be examined. After the solution had run off, plants and animals were stored in an acclimatized chamber (16 hours of light/day, 25° C., 40-60% relative atmospheric humidity). After 3 and 6 days of storage, the effect of the preparation on the aphids (mortality) was determined. The following examples were active: Nos. 33, 36, 357, 1126.

[4] = system: L2 larvae of the Egyptian cotton leaf worm (Spodoptera littoralis); assay: Example D: L2 larvae of Egyptian cotton leaf worm, Petri dish with culture medium; settings: 500 ppm or less, after 6 days
Experimental: as §1
A Petri dish whose bottom was covered with filter paper and which contained about 5 ml of culture medium was prepared. Five L2 larvae of the Egyptian cotton leaf worm (Spodoptera littoralis) were counted into small beakers. 200 μl of an aqueous solution of the formulated preparation to be examined were pipetted into the beaker. The treated larvae were then poured into the Petri dish, and a further 200 μl of the aqueous solution were distributed over the culture medium. The Petri dish was closed and then stored at about 25° C. in a climatized chamber. After 6 days of storage, the effect of the preparation on the larvae (mortality) was determined. The following examples were active: Nos. 27, 28, 29, 39, 43, 45, 59.

[5] = system: larvae of the root gall nematode (Meloidogyne incognita); assay: Example F: root gall nematode, contact action (part A) and soil drench action on cucumber (part B); settings: 500 ppm or less; part A 6 days exposure, part B root galls on cucumber after 2 weeks (Abbott's formula)
Experimental: as §1
Part A of the examination (contact action): in a glass vessel, an aqueous solution of the formulated preparation to be examined was added to about 5000 freshly hatched active (mobile) larvae (2nd development stage) of the root gall nematode (Meloidogyne incognita) (final volume 20 ml). After 6 days of permanent exposure of the nematode larvae, the percentage of the individual larvae immobilized by the action of the preparation was determined in comparison to the untreated controls (nematicidal contact action in percent).
Part B of the examination (soil drench action): to this end, the entire solution from part A of the examination (active compound and pre-treated nematode larvae) was poured into a pot, filled with 60 ml of soil, into which three 9-day-old cucumber plants (Cucumis sativus) had been planted. This drench application reduced the active compound content based on the soil volume to one third of the active compound content in part A of the examination. After 2 weeks in a greenhouse at about 26° C. (watering: twice a day), the root balls of the cucumber plants were carefully washed out of the soil mixture contaminated with nematodes. The number of root galls per plant was counted and compared to the infection of untreated control plants. The reduction of the infection in percent as a criterion for the assessment of the activity was calculated using Abbott's formula (nematicidal soil drench action). The following examples were active: Nos. 6, 7, 29, 32, 34, 44, 356.

[6] = system: spider mites (Tetranychus urticae); assay: Example A: spider mites on bean leaf, dip treatment; settings: 500 ppm or less; leaf and mites dipped 5 seconds; after 6 days
Source text: as §1
Cut stems of bean plants (Phaseolus vulgaris) carrying one leaf were transferred into brown glass bottles filled with tap water and subsequently populated with approximately 100 spider mites (Tetranychus urticae). The plant leaf and the spider mites were then dipped for 5 seconds into an aqueous solution of the formulated preparation to be examined. After the solution had run off, plants and animals were stored in a climatized chamber (16 hours of light/day, 25° C., 40-60% relative atmospheric humidity). After 6 days of storage, the effect of the preparation on all stages of the spider mites was determined. The following examples were active: Nos. 43, 45, 97, 1132.

[7] = system: L2 larvae of the sugar beet armyworm (Spodoptera exigua); assay: Example I: sugar beet armyworm L2 larvae on sprayed cotton leaves; settings: 500 ppm or less, after 4 days
Experimental: as §1
Cotton plants were sprayed with an aqueous solution of the formulated preparation to be examined. After drying, leaves were cut off, placed into a Petri dish and populated with 5 L2 larvae of the sugar beet armyworm (Spodoptera exigua). After 4 days of storage at about 23° C., the effect of the preparation on the larvae (mortality) was determined. The following examples were active: Nos. 27, 28, 45, 59.

[8] = system: larvae of the diamondback moth (Plutella xylostella); assay: Example L: diamondback moth larvae on sprayed cabbage leaf; settings: 500 ppm or less, after 4 days
Experimental: as §1
A cabbage leaf was sprayed with an aqueous solution of the formulated preparation to be examined. After drying, the treated leaf was populated with larvae of the diamondback moth (Plutella xylostella). After 4 days of storage at about 25° C., the effect of the preparation on the larvae (mortality) was determined. The following examples were active: Nos. 27, 28, 45.

[9] = system: eggs of the corn rootworm (Diabrotica undecimpunctata); assay: Example E: eggs of corn rootworm, Petri dish with maize corn; settings: 500 ppm or less, after 6 days
Experimental: as §1
A Petri dish, half of whose bottom was covered with filter paper and which contained a germinated maize corn on a moist cotton pad, was prepared. About 50, 4-5 day-old eggs of the corn rootworm (Diabrotica undecimpunctata) were transferred onto the filter paper. Three drops of 200 μl of an aqueous solution of the formulated preparation to be examined were pipetted onto the eggs, and the rest was pipetted onto the maize corn. The Petri dish was closed and then stored at about 25° C. in a climatized chamber. After 6 days of storage, the effect of the preparation on the eggs and any larvae which may have hatched from these (mortality) was determined. The following examples were active: No. 7.

Compound	effect of the preparation on the eggs and any larvae hatched (mortality) [1]	effect of the preparation on the larvae (mortality) [2]	nematicidal contact action / nematicidal soil drench action [5]	further results
C#Cc1cc(OCC=C(Cl)Cl)cc(Cl)c1OCCCOc1ccc(C(F)(F)F)cn1 [compound 229]	active	active	–	–
CN(C)C(=O)c1cc(OCC=C(Cl)Cl)cc(Cl)c1OCCCOc1ccc(C(F)(F)F)cn1 [compound 36]	–	–	–	effect of the preparation on the aphids (mortality) [3]: active
CON=C(C)c1cc(OCC=C(Cl)Cl)cc(Cl)c1OCCCOc1ccc(C(F)(F)F)cn1 [compound 29]	active	–	active	effect of the preparation on the larvae (mortality) [4]: active
C=Cc1cc(OCC=C(Cl)Cl)cc(Cl)c1OCCCOc1ccc(C(F)(F)F)cn1 [compound 595]	active	active	–	–
NC(=S)c1cc(OCC=C(Cl)Cl)cc(Cl)c1OCCCOc1ccc(C(F)(F)F)cn1 [compound 31]	active	active	–	–
Cc1noc(-c2cc(OCC=C(Cl)Cl)cc(Cl)c2OCCCOc2ccc(C(F)(F)F)cn2)n1 [compound 357]	active	active	–	effect of the preparation on the aphids (mortality) [3]: active
CON(C)C(=O)c1cc(OCC=C(Cl)Cl)cc(Cl)c1OCCCOc1ccc(C(F)(F)F)cn1 [compound 35]	active	–	–	–
CON=C(C)c1cc(OCC=C(Cl)Cl)cc(Cl)c1OCCCCOc1ncc(Cl)cc1Cl [compound 45]	active	–	–	effect of the preparation on all stages of the spider mites [6]: active; effect of the preparation on the larvae (mortality) [4]: active; effect of the preparation on the larvae (mortality) [7]: active; effect of the preparation on the larvae (mortality) [8]: active
CC(=O)c1cc(OCC=C(Cl)Cl)cc(Cl)c1OCCCCOc1ncc(Cl)cc1Cl [compound 43]	active	–	–	effect of the preparation on all stages of the spider mites [6]: active; effect of the preparation on the larvae (mortality) [4]: active
CC(=NO)c1cc(OCC=C(Cl)Cl)cc(Cl)c1OCCCCOc1ncc(Cl)cc1Cl [compound 44]	–	–	active	–
CC(CO)NC(=O)c1cc(OCC=C(Cl)Cl)cc(Cl)c1OCCCOc1ccc(C(F)(F)F)cn1 (stereo not drawn) [compound 32]	–	–	active	–
OCC#Cc1cc(OCC=C(Cl)Cl)cc(Cl)c1OCCCOc1ccc(C(F)(F)F)cn1 [compound 227]	active	active	–	–
CCOC(=O)C=Cc1cc(OCC=C(Cl)Cl)cc(Cl)c1OCCCOc1ccc(C(F)(F)F)cn1 [compound 592]	active	active	–	–
CC(=O)c1cc(OCC=C(Cl)Cl)cc(Cl)c1OCCCc1ccc(Cl)cc1 [compound 6]	active	–	active	–
COC(=O)C=Cc1cc(OCC=C(Cl)Cl)cc(Cl)c1OCCCOc1ccc(C(F)(F)F)cn1 [compound 593]	active	active	–	–
COCC#Cc1cc(OCC=C(Cl)Cl)cc(Cl)c1OCCCOc1ccc(C(F)(F)F)cn1 [compound 228]	active	active	–	–
COC(=O)c1cc(OCC=C(Cl)Cl)cc(Cl)c1OCCCc1ccc(Cl)cc1 [compound 7]	–	–	active	effect of the preparation on the eggs and any larvae hatched (mortality) [9]: active
CSCc1noc(-c2cc(OCC=C(Cl)Cl)cc(Cl)c2OCCCOc2ccc(C(F)(F)F)cn2)n1 [compound 351]	active	active	–	–
CCNC(=O)c1cc(OCC=C(Cl)Cl)cc(Cl)c1OCCCOc1ccc(C(F)(F)F)cn1 [compound 34]	–	–	active	–
